According to publication PMC4993599 (Bioorganic & medicinal chemistry letters, 2016):

What was measured:
TSPO = TSPO (Rattus norvegicus, UniProt P16257); assay: C6 glioma cell lysate binding assay; details: for binding affinity (in words): TSPO
[1] = Lipophilicity by analytical reverse phase HPLC; type: physicochemical

## CCc1cc(CC)n2nc(-c3ccc(OC)cc3)c(CC(=O)N3CCCCC3)c2n1 [Compound 25]
TSPO
  binding affinity (in words): very poor binding affinity

## CCCCN(CCCC)C(=O)Cc1c(-c2ccc(OC)cc2)nn2c(CC)cc(CC)nc12 [Compound 12]
[1]
  lipophilicity (in words): extremely lipophilic

## CCCCCN(CCCCC)C(=O)Cc1c(-c2ccc(OC)cc2)nn2c(CC)cc(CC)nc12 [Compound 13]
[1]
  lipophilicity (in words): extremely lipophilic

## CCc1cc(CC)n2nc(-c3ccc(OC)cc3)c(CC(=O)N3CCC3)c2n1 [Compound 23]
TSPO
  binding affinity (in words): very poor binding affinity

## CCc1cc(CC)n2nc(-c3ccc(OC)cc3)c(CC(=O)N(CC)C(C)(C)C)c2n1 [Compound 16]
TSPO; compound 16 relative to compound 10
  decrease of affinity when substituting ethyl groups with t-butyls: over 300 fold

## CCN(CC)C(=O)Cc1c(-c2ccc(OC)cc2)nn2c(C)cc(C)nc12 [Compound 8, DPA-713, reference compound]
[1]; reverse phase HPLC, averaged from triple runs
  log P7.5: 2.40

## CCCCCCN(CCCCCC)C(=O)Cc1c(-c2ccc(OC)cc2)nn2c(CC)cc(CC)nc12 [Compound 14]
[1]
  lipophilicity (in words): extremely lipophilic

## CCc1cc(CC)n2nc(-c3ccc(OC)cc3)c(CC(=O)N3CCCC3)c2n1 [Compound 24]
TSPO
  binding affinity (in words): very poor binding affinity
